According to patent US11299472B2, “Fumarate salt of (R)-3-(1-(2,3-dichloro-4-(pyrazin-2-yl)phenyl)-2,2,2- trifluoroethyl)-1-methyl-1-(1-methylpiperidin-4-yl) urea, methods of preparation, and uses thereof” (Helsinn Healthcare SA, priority 2017, dated 2022):

Assays:
[1] = Dog pharmacokinetic study, HM04 free base vs HM04 fumarate salt (Example 9); format: in vivo, male Beagle dogs
Method: The pharmacokinetics of HM04 in plasma of male Beagle dogs dosed with a single oral administration of 2 mg/kg HM04 formulated in a solution of 10% DMAC, 6% Solutol, and 84% PBS using either the HM04 free base or HM04 fumarate salt were compared. A comparison of the plasma concentration of HM04 (ng/mL) over time in dogs dosed orally with HM04 free base and HM04 fumarate salt is provided in FIG. 18. Bioavailability was calculated from a dose normalized ratio of the oral mean AUC to the intravenous mean AUC (AUCpo/AUCiv×Doseiv/Dosepo).

[2] = system: Snord116+/− (Het) mice and wild-type (WT) littermates; assay: Food intake and body weight after daily administration in Prader-Willi mouse model; format: in vivo
Source text: The effect of HM04 fumarate salt on food intake behavior and glucose tolerance was investigated in the Snord116+/−(Het) mouse genetic model of Prader-Willi syndrome (Het mouse) compared to wild-type (WT) littermates. Since D2R agonists suppress food intake, the FDA approved D2R agonist cabergoline was used as an experimental control. Phenotypic characteristics of this PWS mouse model include hyperphagia, postnatal growth retardation, high ghrelin, and low growth hormone. Ding F., et al. SnoRNA Snord116 (Pwcr1/MBII-85) deletion causes growth deficiency and hyperphagia in mice. PloS one. 2008; 3(3):e1709. These PWS mice eat more frequently than WT littermates, particularly during the light cycle and are more motivated to work for food (more level presses) (data not shown).
Food intake and body weight were measured daily.

[3] = male, Beagle, plasma, 2 mg/kg oral, mean ± S.D., n=3
[4] = 6-month-old Het mice, HM04 10 mg/kg i.p. daily at 07.00 hours for 10 days
[5] = 6-month-old WT mice, HM04 10 mg/kg i.p. daily at 07.00 hours for 10 days
[6] = 8-month-old Het mice, HM04 30 mg/kg oral daily at 07.00 hours for 5 days
[7] = 8-month-old Het mice, HM04 30 mg/kg oral daily at 18.00 hours for 5 days
[8] = 8-month-old WT mice, HM04 30 mg/kg oral daily at 07.00 hours for 5 days

SMILES | HM04 plasma concentration ([1]; 2 mg/kg oral, 0.25 hours, mean ± S.D., n=3) | HM04 plasma concentration ([1]; 2 mg/kg oral, 0.50 hours, mean ± S.D., n=3) | HM04 plasma concentration ([1]; 2 mg/kg oral, 2 hours, mean ± S.D., n=3) | bioavailability ([1]; male, Beagle, plasma, 2 mg/kg oral vs 1 mg/kg intravenous, dose normalized AUC ratio) | AUC(0-t) [1, 3] | Cmax [1, 3] | Tmax [1, 3] | body weight [2, 4] | food intake [2, 4] | body weight [2, 5] | food intake [2, 5] | body weight [2, 6] | food intake [2, 6] | food consumption during the dark cycle [2, 7] | food intake during the subsequent light cycle (06.00-18.00) [2, 7] | body weight [2, 8] | food intake [2, 8] | food consumption during the dark cycle ([2]; 8-month-old WT mice, HM04 30 mg/kg oral daily at 18.00 hours for 5 days)
CN1CCC(N(C)C(=O)N[C@H](c2ccc(-c3cnccn3)c(Cl)c2Cl)C(F)(F)F)CC1.O=C(O)/C=C/C(=O)O [HM04 fumarate salt, (R)-3-(1-(2,3-dichloro-4-(pyrazin-2-yl)phenyl)-2,2,2-trifluoroethyl)-1-methyl-1-(1-methylpiperidin-4-yl)urea fumarate salt] | 86.6 ± 32.2 ng/mL | 182.4 ± 24.1 ng/mL | 219.0 ± 63.6 ng/mL | 82.3 ± 36.8% | 1850 ± 828 ng·h/mL | 230 ± 57.1 ng/mL | 1.33 ± 0.58 h |  |  |  |  |  |  |  |  |  |  | 
CN1CCC(N(C)C(=O)N[C@H](c2ccc(-c3cnccn3)c(Cl)c2Cl)C(F)(F)F)CC1 [HM04, (R)-3-(1-(2,3-dichloro-4-(pyrazin-2-yl)phenyl)-2,2,2-trifluoroethyl)-1-methyl-1-(1-methylpiperidin-4-yl)urea] |  |  |  |  |  |  |  | no apparent effect | no apparent effect | no apparent effect | no apparent effect | unaffected | significant decrease in food intake was observed by day 2, but not on subsequent days | suppression of food consumption was not observed | food intake was lower in HM04-treated Het mice, but not WT mice on days 2, 3, 4, and 5 and reached significance on day 5 | No reduction in food intake or body weight | No reduction in food intake | suppression of food consumption was not observed
